Data as given in patent publication US11753407B2, “Compounds for treating spinal muscular atrophy” (PTC Therapeutics, Inc., priority 2012, dated 2023).

Legend:
[1] = tested on: Smn protein in SMA patient fibroblast cells (GM03813); assay: Smn protein assay in cultured cells (SMN HTRF); format: cell-based, human; details: SMA patient fibroblast cells, 48 hours; for EC1.5x for Smn protein expression: 7-point concentration curve, SMN HTRF, concentration producing 1.5 times Smn protein vs DMSO vehicle control; for maximum fold (Fold) increase of Smn protein: 7-point concentration data, fold relative to vehicle control
Procedure, shortened: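 Smn protein abundance in treated SMA fibroblasts was measured by HTRF after 48 h compound exposure. The reported EC1.5× is the concentration producing 1.5 times vehicle Smn levels.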

[2] = tested on: SMN2 minigene mRNA (SMN2-A minigene) in HEK293H cells; assay: SMN2 minigene mRNA splicing RT-qPCR assay in cultured cells; format: cell-based, human; details: Homo sapiens, HEK293-H; concentration increasing full length SMN2 mRNA 1.5-fold relative to vehicle-treated cells; HEK293H cells with SMN2-A minigene, 24 hours, 7-point concentration data; read-out: EC1.5x for production of full length SMN2 mRNA
Procedure, shortened: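 Potency reflects the concentration that lifts full-length SMN2 minigene mRNA 1.5-fold above vehicle in stably transfected HEK293H cells after 24 h of treatment. Transcript abundance came from RT-qPCR as (1+E)^−Ct, normalized to GAPDH; endogenous SMN1/SMN2 are not detected.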

| Structure (SMILES) | melting point | EC1.5x for Smn protein expression [1] | maximum fold (Fold) increase of Smn protein [1] | EC (1.5-fold increase) [2] |
| --- | --- | --- | --- | --- |
| Cc1cn2nc(-c3cc(=O)n4cc(N5CCN(C)CC5)ccc4n3)cc2cn1 [Compound 440, 7-(4-methylpiperazin-1-yl)-2-(6-methylpyrazolo[1,5-a]pyrazin-2-yl)-4H-pyrido[1,2-a]pyrimidin-4-one] | 230 to 240 °C | **** (an EC1.5x≤0.3 μM is indicated by four stars (****)) | **** (a fold increase between >1.5 and ≤1.65 is indicated by four stars (****)) | < 0.1 µM |
| Cc1cn2nc(-c3cc(=O)n4cc(N5CCN[C@@H](C)C5)ccc4n3)cc2cn1 [Compound 441, 7-[(3S)-3-methylpiperazin-1-yl]-2-(6-methylpyrazolo[1,5-a]pyrazin-2-yl)-4H-pyrido[1,2-a]pyrimidin-4-one] | 235 to 240 °C | **** (an EC1.5x≤0.3 μM is indicated by four stars (****)) | ***** (a fold increase >1.65 is indicated by five stars (*****)) | < 0.1 µM |
| Cc1cn2nc(-c3cc(=O)n4cc(N5C[C@@H](C)N[C@@H](C)C5)ccc4n3)cc2cn1 [Compound 442, 7-[(3R,5S)-3,5-dimethylpiperazin-1-yl]-2-(6-methylpyrazolo[1,5-a]pyrazin-2-yl)-4H-pyrido[1,2-a]pyrimidin-4-one] | 258 to 260 °C | **** (an EC1.5x≤0.3 μM is indicated by four stars (****)) | ***** (a fold increase >1.65 is indicated by five stars (*****)) | < 0.1 µM |
| CN(C)c1ccc(-c2cc(=O)n3cc(C4=CCNCC4)ccc3n2)cn1 [Compound 444, 2-[6-(dimethylamino)pyridin-3-yl]-7-(1,2,3,6-tetrahydropyridin-4-yl)-4H-pyrido[1,2-a]pyrimidin-4-one] | 255 to 257 °C | ** (an EC1.5× between >1 μM and ≤3 μM is indicated by two stars (**)) | *** (a fold increase between >1.35 and ≤1.5 is indicated by three stars (***)) | 0.3 to 1 µM |
| CCN(CC)C1CCN(c2ccc3nc(-c4ccc5nc(C)cn5c4)cc(=O)n3c2)CC1 [Compound 445, 7-[4-(diethylamino)piperidin-1-yl]-2-(2-methylimidazo[1,2-a]pyridin-6-yl)-4H-pyrido[1,2-a]pyrimidin-4-one] | 208 to 210 °C | *** (an EC1.5× between >0.3 μM and ≤1 μM is indicated by three stars (***)) | *** (a fold increase between >1.35 and ≤1.5 is indicated by three stars (***)) | < 0.1 µM |
| COc1ccc(-c2cc(=O)n3cc(N4CCC(N(C)CCO)CC4)cc(C)c3n2)cc1OC [Compound 446, 2-(3,4-dimethoxyphenyl)-7-{4-[(2-hydroxyethyl)(methyl)amino]piperidin-1-yl}-9-methyl-4H-pyrido[1,2-a]pyrimidin-4-one] | 164 to 171 °C | ** (an EC1.5× between >1 μM and ≤3 μM is indicated by two stars (**)) | *** (a fold increase between >1.35 and ≤1.5 is indicated by three stars (***)) | < 0.1 µM |
| CCc1cc(N2CCN[C@H](C)C2)cn2c(=O)cc(-c3ccc(OC)c(OC)c3)nc12 [Compound 447, 2-(3,4-dimethoxyphenyl)-9-ethyl-7-[(3R)-3-methylpiperazin-1-yl]-4H-pyrido[1,2-a]pyrimidin-4-one] | 140 to 147 °C |  | * (A maximum fold increase of ≤1.2 is indicated by one star (*)) | 0.1 to 0.3 µM |
| CN1CC=C(c2ccc3nc(-c4ccc5c(cnn5C)c4)cc(=O)n3c2)CC1 [Compound 449, 2-(1-methyl-1H-indazol-5-yl)-7-(1-methyl-1,2,3,6-tetrahydropyridin-4-yl)-4H-pyrido[1,2-a]pyrimidin-4-one] | 148 to 150 °C | **** (an EC1.5x≤0.3 μM is indicated by four stars (****)) | **** (a fold increase between >1.5 and ≤1.65 is indicated by four stars (****)) | < 0.1 µM |
| CN1CC=C(c2ccc3nc(-c4ccc(N(C)C)nc4)cc(=O)n3c2)CC1 [Compound 450, 2-[6-(dimethylamino)pyridin-3-yl]-7-(1-methyl-1,2,3,6-tetrahydropyridin-4-yl)-4H-pyrido[1,2-a]pyrimidin-4-one] | 214 to 216 °C |  | ** (a fold increase between >1.2 and ≤1.35 is indicated by two stars (**)) | 0.3 to 1 µM |

Now from value to compound, other results behind:

| melting point | Structure (SMILES) | EC1.5x for Smn protein expression [1] | maximum fold (Fold) increase of Smn protein [1] | EC (1.5-fold increase) [2] |
| --- | --- | --- | --- | --- |
| 218 to 220 °C | Cc1cn2cc(-c3cc(=O)n4cc(C5CCN(C)CC5)ccc4n3)ccc2n1 [Compound 448, 2-(2-methylimidazo[1,2-a]pyridin-6-yl)-7-(1-methylpiperidin-4-yl)-4H-pyrido[1,2-a]pyrimidin-4-one] | **** (an EC1.5x≤0.3 μM is indicated by four stars (****)) | ***** (a fold increase >1.65 is indicated by five stars (*****)) | < 0.1 µM |
| 232 to 235 °C | CCN(CC)C1CCN(c2ccc3nc(-c4cc5c(C)nc(C)cn5n4)cc(=O)n3c2)CC1 [Compound 451, 7-[4-(diethylamino)piperidin-1-yl]-2-(4,6-dimethylpyrazolo[1,5-a]pyrazin-2-yl)-4H-pyrido[1,2-a]pyrimidin-4-one] | *** (an EC1.5× between >0.3 μM and ≤1 μM is indicated by three stars (***)) | ***** (a fold increase >1.65 is indicated by five stars (*****)) | < 0.1 µM |
| 220 to 222 °C | Cc1cn2nc(-c3cc(=O)n4cc(C5CCN(C)CC5)ccc4n3)cc2c(C)n1 [Compound 453, 2-(4,6-dimethylpyrazolo[1,5-a]pyrazin-2-yl)-7-(1-methylpiperidin-4-yl)-4H-pyrido[1,2-a]pyrimidin-4-one] | **** (an EC1.5x≤0.3 μM is indicated by four stars (****)) | ***** (a fold increase >1.65 is indicated by five stars (*****)) | < 0.1 µM |
| 170 to 172 °C | CCN1CCC(c2ccc3nc(-c4cc5c(C)nc(C)cn5n4)cc(=O)n3c2)CC1 [Compound 454, 2-(4,6-dimethylpyrazolo[1,5-a]pyrazin-2-yl)-7-(1-ethylpiperidin-4-yl)-4H-pyrido[1,2-a]pyrimidin-4-one] | **** (an EC1.5x≤0.3 μM is indicated by four stars (****)) | ***** (a fold increase >1.65 is indicated by five stars (*****)) | < 0.1 µM |
| 180 to 184 °C | CCc1cc(N2CCN3CCC[C@@H]3C2)cn2c(=O)cc(-c3ccc(OC)c(OC)c3)nc12 [Compound 455, 2-(3,4-dimethoxyphenyl)-9-ethyl-7-[(8aR)-hexahydropyrrolo[1,2-a]pyrazin-2(1H)-yl]-4H-pyrido[1,2-a]pyrimidin-4-one] |  | ** (a fold increase between >1.2 and ≤1.35 is indicated by two stars (**)) | 0.1 to 0.3 µM |
| 178 to 182 °C | COCCNC1CCN(c2cc(C)c3nc(-c4ccc(OC)c(OC)c4)cc(=O)n3c2)CC1 [Compound 456, 2-(3,4-dimethoxyphenyl)-7-{4-[(2-methoxyethyl)amino]piperidin-1-yl}-9-methyl-4H-pyrido[1,2-a]pyrimidin-4-one] |  | *** (a fold increase between >1.35 and ≤1.5 is indicated by three stars (***)) | 0.1 to 0.3 µM |
| 262 to 271 °C | Cc1cn2nc(-c3cc(=O)n4cc(N5CCN(C)CC5)cc(C)c4n3)cc2c(C)n1 [Compound 457, 2-(4,6-dimethylpyrazolo[1,5-a]pyrazin-2-yl)-9-methyl-7-(4-methylpiperazin-1-yl)-4H-pyrido[1,2-a]pyrimidin-4-one] | **** (an EC1.5x≤0.3 μM is indicated by four stars (****)) | ***** (a fold increase >1.65 is indicated by five stars (*****)) | < 0.1 µM |
| 244 to 256 °C | Cc1cn2nc(-c3cc(=O)n4cc(N5CCN6CCC[C@@H]6C5)cc(C)c4n3)cc2c(C)n1 [Compound 458, 2-(4,6-dimethylpyrazolo[1,5-a]pyrazin-2-yl)-7-[(8aR)-hexahydropyrrolo[1,2-a]pyrazin-2(1H)-yl]-9-methyl-4H-pyrido[1,2-a]pyrimidin-4-one] | *** (an EC1.5× between >0.3 μM and ≤1 μM is indicated by three stars (***)) | **** (a fold increase between >1.5 and ≤1.65 is indicated by four stars (****)) | < 0.1 µM |
| 231 to 241 °C | Cc1cn2nc(-c3cc(=O)n4cc(N5CCC(N(C)C)CC5)cc(C)c4n3)cc2c(C)n1 [Compound 459, 7-[4-(dimethylamino)piperidin-1-yl]-2-(4,6-dimethylpyrazolo[1,5-a]pyrazin-2-yl)-9-methyl-4H-pyrido[1,2-a]pyrimidin-4-one] |  | *** (a fold increase between >1.35 and ≤1.5 is indicated by three stars (***)) | < 0.1 µM |
